Source: ChEMBL document CHEMBL3046546, “Synthesis and biological evaluation of a novel anti-malarial lead” (Med Chem Res, 2011)
Active and inactive are the calls of the source. The rule behind the calls is not given here.

Columns and labels:
Type in all cases: functional, organism-based
Plasmodium falciparum [1] = assay: Antimalarial activity against chloroquine-resistant Plasmodium falciparum W2 after 72 hr by […] assay; conditions: W2, 72 h
Plasmodium falciparum [2] = assay: Antimalarial activity against chloroquine-sensitive Plasmodium falciparum D6 after 72 hr by […] assay; conditions: D6, 72 h
Leishmania donovani = assay: Antileishmanial activity against promastigotes of Leishmania donovani expressing firefly luciferase after 72 hr by luciferase assay
Cryptococcus neoformans = assay: Antimicrobial activity against Cryptococcus neoformans
Aspergillus fumigatus = assay: Antimicrobial activity against Aspergillus fumigatus
Staphylococcus aureus = assay: Antimicrobial activity against methicillin-resistant Staphylococcus aureus
Escherichia coli = assay: Antimicrobial activity against Escherichia coli
Candida albicans = assay: Antimicrobial activity against Candida albicans
[3] = system: Mycobacterium intracellulare; assay: Antimicrobial activity against Mycobacterium intracellulare

| IC90 (Leishmania donovani) [µM] | SMILES | IC50 (Plasmodium falciparum [1]) [µM] | IC50 (Plasmodium falciparum [2]) [µM] | IC50 (Leishmania donovani) [µM] | Activity (Cryptococcus neoformans) | Activity (Aspergillus fumigatus) | Activity (Staphylococcus aureus) | Activity (Escherichia coli) | Activity (Candida albicans) | Activity [3] |
| --- | --- | --- | --- | --- | --- | --- | --- | --- | --- | --- |
|  | CCOC(=O)Cc1ccc(Cc2cn(Cc3ccccc3)cn2)cc1 | 6.3 | 8 |  |  |  |  |  |  |  |
| 2.5 | C[C@@H]1[C@H](O)[C@@H](C)/C=C/C=C/C=C/C=C/C=C/C=C/C=C/[C@H](O[C@@H]2O[C@H](C)[C@@H](O)[C@H](N)[C@@H]2O)C[C@@H]2O[C@](O)(C[C@@H](O)C[C@@H](O)[C@H](O)CC[C@@H](O)C[C@@H](O)CC(=O)O[C@H]1C)C[C@H](O)[C@H]2C(=O)O [AMPHOTERICIN B] |  |  |  |  |  |  |  |  |  |
| 134 | CCc1ccc(Cc2cc(N)cc(N)c2)cc1 |  |  | 69 |  |  |  |  |  |  |
|  | CCOC(=O)C(=O)Nc1cc(Cc2ccc(CC)cc2)cc(NC(=O)Cc2ccc(Cc3cn(Cc4ccccc4)cn3)cc2)c1 | 5.5 | 6.5 | 41 | inactive | inactive | inactive | inactive | inactive | inactive |
